# Activity calls are given as the source filed them. The calls are words filed in the database; no cut-off is given here.
# Tests used:
# [1] = Cytotoxicity against human Friedreich's ataxia lymphocytes assessed as cell viability by measuring live cells at 2500 nM after 24 hrs by calceinAM ester/ethidium homodimer-1 staining based flow cytometry (reference value: 88.2%); set-up: species or system Friedreich's ataxia lymphocyte; conditions: read-out: Activity
# [2] = test system: Friedreich's ataxia lymphocyte; assay: Increase in total ATP levels in human Friedreich's ataxia lymphocytes at 0.5 to 2.5 uM after 24 hrs by bioluminescence assay; assay type: functional, cell-based
# [3] = test system: Friedreich's ataxia lymphocyte; assay: Increase in total ATP levels in human Friedreich's ataxia lymphocytes at 100 nM after 24 hrs by bioluminescence assay; assay type: functional, cell-based
# [4] = Cytotoxicity against human Friedreich's ataxia lymphocytes assessed as cell viability by measuring live cells at 2500 nM after 48 hrs by calceinAM ester/ethidium homodimer-1 staining based flow cytometry (reference value: 89.3%); set-up: species or system Friedreich's ataxia lymphocyte; conditions: read-out: Activity
# [5] = test system: Friedreich's ataxia lymphocyte; assay: Restoration of total aconitase activity in FRDA patient derived Friedreich's ataxia lymphocytes at 50 to 250 nM after 5 days by colorimetric assay; assay type: functional, cell-based; conditions: Homo sapiens
# [6] = test system: Friedreich's ataxia lymphocyte; assay: Inhibition of DEM-induced ROS production in human Friedreich's ataxia lymphocytes incubated for 16 hrs followed by DEM treatment for 80 mins by DCFH-DA dye based flow cytometry; assay type: functional, cell-based
# [7] = Cytotoxicity against human Friedreich's ataxia lymphocytes assessed as cell viability by measuring live cells at 250 nM after 48 hrs by calceinAM ester/ethidium homodimer-1 staining based flow cytometry (reference value: 89.3%); set-up: species or system Friedreich's ataxia lymphocyte; conditions: read-out: Activity
# [8] = test system: Friedreich's ataxia lymphocyte; assay: Cytoprotective activity against rotenone-induced cytotoxicity in human Friedreich's ataxia lymphocytes assessed as increase in cell viability at 250 to 2500 nM preincubated for 12 hrs followed by complex 1 inhibitor rotenone addition measured after 16 hrs by calceinAM ester/ethidium homodimer-1 staining based flow cytometry; assay type: functional
# Homo sapiens [9] = species on record: Homo sapiens; assay: (§1) Cytoprotective activity against BSO-treated human Friedreich's ataxia fibroblasts assessed as increase in cell viability incubated overnight followed by BSO addition measured after 48 hrs by calceinAM ester/ethidium homodimer-1 staining based flow cytometry; assay type: functional
# [10] = Cytotoxicity against human Friedreich's ataxia lymphocytes assessed as cell viability by measuring live cells at 250 nM after 24 hrs by calceinAM ester/ethidium homodimer-1 staining based flow cytometry (reference value: 88.2%); set-up: species or system Friedreich's ataxia lymphocyte; conditions: read-out: Activity
# Mus musculus = species on record: Mus musculus; assay: Substrate activity at NADH-ubiquinone oxidoreductase in mouse liver mitochondrial membrane fractions assessed as induction of electron flow from complex-1 by measuring NADH oxidation at 5 uM after 5 mins in presence of complex 1 blocker rotenone at 0.1 uM using NADH and coenzyme Q1; assay type: cell membranes
# Homo sapiens [11] = species on record: Homo sapiens; assay: Cytoprotective activity against BSO-treated human Friedreich's ataxia fibroblasts assessed as increase in cell viability at 25 to 50 nM incubated overnight followed by BSO addition measured after 48 hrs by calceinAM ester/ethidium homodimer-1 staining based flow cytometry; assay type: functional
# [12] = Induction of inner mitochondrial membrane potential depolarization in human Friedreich's ataxia lymphocytes assessed as JC-1 monomers at 2500 nM after 16 hrs by JC1-staining based flow cytometry (reference value: 17.3%); assay type: functional, Friedreich's ataxia lymphocyte
# [13] = test system: Friedreich's ataxia lymphocyte; assay: (§2) Increase in frataxin protein expression levels in FRDA patient derived Friedreich's ataxia lymphocytes at 250 nM after 24 to 48 hrs by ELISA; assay type: functional; conditions: Homo sapiens
# [14] = Induction of inner mitochondrial membrane potential depolarization in human Friedreich's ataxia lymphocytes assessed as JC-1 monomers at 250 nM after 16 hrs by JC1-staining based flow cytometry (reference value: 17.3%); assay type: functional, Friedreich's ataxia lymphocyte
# [15] = Induction of mitochondrial biogenesis in FRDA patient derived Friedreich's ataxia lymphocytes assessed as increase in COX-1/SDH-A protein levels at 50 nM after 24 to 48 hrs by ELISA relative to control; assay type: functional, Homo sapiens, Friedreich's ataxia lymphocyte
# [16] = Cytotoxicity against human Friedreich's ataxia lymphocytes assessed as cell viability by measuring dead cells at 250 nM after 48 hrs by calceinAM ester/ethidium homodimer-1 staining based flow cytometry (reference value: 10.6%); conditions: friedreich's ataxia lymphocyte, 0.25 µM
# [17] = test system: Friedreich's ataxia lymphocyte; assay: (§3) Induction of mitochondrial biogenesis in FRDA patient derived Friedreich's ataxia lymphocytes assessed as increase in COX-1/SDH-A protein levels at 250 nM after 24 to 48 hrs by ELISA; assay type: functional; conditions: Homo sapiens
# [18] = Increase in frataxin protein expression levels in FRDA patient derived Friedreich's ataxia lymphocytes at 50 nM after 24 to 48 hrs by ELISA relative to control; assay type: functional, Homo sapiens, Friedreich's ataxia lymphocyte
# [19] = Cytotoxicity against human Friedreich's ataxia lymphocytes assessed as cell viability by measuring dead cells at 2500 nM after 48 hrs by calceinAM ester/ethidium homodimer-1 staining based flow cytometry (reference value: 10.6%); conditions: friedreich's ataxia lymphocyte, 2.5 µM
# [20] = Induction of inner mitochondrial membrane potential depolarization in human Friedreich's ataxia lymphocytes assessed as JC-1 aggregates at 250 nM after 16 hrs by JC1-staining based flow cytometry (reference value: 83%); assay type: functional, Friedreich's ataxia lymphocyte
# [21] = Induction of inner mitochondrial membrane potential depolarization in human Friedreich's ataxia lymphocytes assessed as JC-1 aggregates at 2500 nM after 16 hrs by JC1-staining based flow cytometry (reference value: 83%); assay type: functional, Friedreich's ataxia lymphocyte
# [22] = Cytotoxicity against human Friedreich's ataxia lymphocytes assessed as cell viability by measuring dead cells at 250 nM after 24 hrs by calceinAM ester/ethidium homodimer-1 staining based flow cytometry (reference value: 11.2%); conditions: friedreich's ataxia lymphocyte, 0.25 µM
# [23] = as §1; assay type: functional
# [24] = Cytotoxicity against human Friedreich's ataxia lymphocytes assessed as cell viability by measuring dead cells at 2500 nM after 24 hrs by calceinAM ester/ethidium homodimer-1 staining based flow cytometry (reference value: 11.2%); conditions: friedreich's ataxia lymphocyte, 2.5 µM
# [25] = as §2; assay type: functional, Homo sapiens, Friedreich's ataxia lymphocyte
# [26] = as §3; assay type: functional, Homo sapiens, Friedreich's ataxia lymphocyte
# [27] = test system: Friedreich's ataxia lymphocyte; assay: Inhibition of DEM-induced ROS production in human Friedreich's ataxia lymphocytes at 250 to 2500 nM incubated for 16 hrs followed by DEM treatment for 80 mins by DCFH-DA dye based flow cytometry; assay type: functional, cell-based
# [28] = test system: Friedreich's ataxia lymphocyte; assay: Increase in total ATP levels in human Friedreich's ataxia lymphocytes at 0.1 to 0.5 uM after 24 hrs by bioluminescence assay; assay type: functional, cell-based
# [29] = test system: Friedreich's ataxia lymphocyte; assay: Increase in total ATP levels in human Friedreich's ataxia lymphocytes at 2.5 uM after 24 hrs by bioluminescence assay; assay type: functional, cell-based
Compound,"viability at 24 h, 2.5 µM [1]",Activity [2],Activity [3],"viability at 48 h, 2.5 µM [4]",inhibition [6],"viability at 48 h, 0.25 µM [7]",Activity [8],Activity (Homo sapiens [9]),"viability at 24 h, 0.25 µM [10]",Activity [12],Activity [13],Activity [14],Activity [16],Activity [17],Activity [19],Activity [20],Activity [21],Activity [22],EC50 [23],Activity [24],further results
CN(C)c1ccc2nc3ccc(=[N+](C)C)cc-3sc2c1 [METHYLENE BLUE ANHYDROUS],60.2%,inactive,inactive,15.4%,Dose-dependent effect,77.5%,Active,Dose-dependent effect,85.4%,–,–,–,–,–,–,–,–,–,–,–,Activity [5]: Active; Activity (Mus musculus): Active
CCCCCCCCCCCc1cc2nc3ccc(N(C)C)cc3sc-2cc1=[N+](C)C.[I-],45.1%,inactive,inactive,16.2%,Dose-dependent effect,85.7%,Active,Dose-dependent effect,89.5%,46.9%,inactive,17.4%,14.2%,inactive,83.5%,82.9%,54.8%,10.2%,35 nM,54.7%,Activity (Homo sapiens [11]): Active; Activity [15]: >=15%; Activity [18]: >=10%
CN(C)c1ccc2nc3ccc(N(C)C)cc3[s+]c2c1.[Cl-] [METHYLENE BLUE ANHYDROUS],–,–,–,–,–,–,–,–,–,51.2%,–,20.2%,22.5%,–,84.3%,80.3%,49%,14.3%,75 nM,39.6%,Activity [25]: >=15%; Activity [15]: >=15%; Activity [26]: >=20%; Activity [18]: >=10%
CCCCCc1cc2nc3ccc(N(C)C)cc3sc-2cc1=[N+](C)C.[I-],37.5%,inactive,inactive,4.4%,–,78.7%,Active,Dose-dependent effect,82.6%,70.9%,–,16.9%,21%,–,95.2%,83.5%,31.4%,17.2%,66 nM,62.4%,Activity [25]: >=15%; Activity [26]: >=20%; inhibition [27]: Active; Activity (Mus musculus): Active
CCCCCCCCCCCCCc1cc2nc3ccc(N(C)C)cc3sc-2cc1=[N+](C)C.[I-],41.3%,inactive,inactive,21.6%,Dose-dependent effect,86.7%,Active,Dose-dependent effect,89.3%,72.2%,–,17.6%,13.1%,–,78%,82.8%,30.6%,10.3%,37 nM,58.5%,Activity (Homo sapiens [11]): Active; Activity [25]: >=15%; Activity [26]: >=20%
CCCCCCCCCCCCCCCCCc1cc2nc3ccc(N4CCOCC4)cc3sc-2cc1=[N+]1CCOCC1.[I-],87.9%,–,–,79%,–,87.4%,Active,Dose-dependent effect,91.3%,20.7%,inactive,16%,12.4%,inactive,20.8%,84.2%,79.8%,8.6%,52 nM,12%,Activity [28]: Active; Activity [29]: inactive; inhibition [27]: Active
CCCCCCCCCCCCCCCCCc1cc2nc3ccc(N(C)C)cc3sc-2cc1=[N+](C)C.[I-],89.2%,–,–,86.2%,–,87.7%,Active,Dose-dependent effect,91%,23.4%,inactive,15.2%,12.2%,inactive,13.5%,85.3%,77.1%,8.8%,48 nM,10.5%,Activity [28]: Active; Activity [29]: inactive; inhibition [27]: Active

# Source: ChEMBL document CHEMBL4118183, “Lipophilic methylene blue analogues enhance mitochondrial function and increase frataxin levels in a cellular model of Friedreich's ataxia” (Bioorg Med Chem, 2018)
